According to US9017974B2, “Method for the synthesis of porphyrin-phospholipid conjugates” (priority 2011, dated 2015):

Columns and labels:
Type in all cases: biochemical
[1] = biological target: Lipase from Thermomyces lanuginosus (LTL) (Thermomyces lanuginosus, UniProt O59952); conditions: pH 8
[2] = biological target: T1, Lipase from Rhizomucor miehei (Rhizomucor miehei, UniProt P19515); conditions: 37 C, 3 hours, 0.025% Triton X100, 5 mM Tris pH 8, HPLC/MS
T1 sequence (P19515 95-363): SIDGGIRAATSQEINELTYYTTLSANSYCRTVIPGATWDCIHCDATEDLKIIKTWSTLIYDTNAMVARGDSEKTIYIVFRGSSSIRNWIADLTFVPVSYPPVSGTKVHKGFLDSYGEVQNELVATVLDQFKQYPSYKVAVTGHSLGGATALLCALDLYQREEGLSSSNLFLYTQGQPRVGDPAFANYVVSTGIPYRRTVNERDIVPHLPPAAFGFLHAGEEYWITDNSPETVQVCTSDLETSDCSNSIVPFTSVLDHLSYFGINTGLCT

[3] = biological target: Lipase from Pseudomonas cepacia (Burkholderia cepacia, UniProt P22088); conditions: 37 C, 3 hours, 0.025% Triton X100, 5 mM Tris pH 8, HPLC/MS
Chain of Lipase from Pseudomonas cepacia (P22088 45-364): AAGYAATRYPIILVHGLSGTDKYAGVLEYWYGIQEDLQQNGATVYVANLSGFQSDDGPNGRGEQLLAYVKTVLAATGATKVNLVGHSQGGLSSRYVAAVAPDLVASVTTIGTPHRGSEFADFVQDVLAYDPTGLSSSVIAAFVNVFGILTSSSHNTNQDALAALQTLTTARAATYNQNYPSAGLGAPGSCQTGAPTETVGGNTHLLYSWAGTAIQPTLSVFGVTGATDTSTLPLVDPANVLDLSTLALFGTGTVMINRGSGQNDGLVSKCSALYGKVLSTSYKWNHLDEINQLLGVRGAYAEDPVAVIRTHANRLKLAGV

Chain of Lipase from Thermomyces lanuginosus (LTL) (O59952 23-291): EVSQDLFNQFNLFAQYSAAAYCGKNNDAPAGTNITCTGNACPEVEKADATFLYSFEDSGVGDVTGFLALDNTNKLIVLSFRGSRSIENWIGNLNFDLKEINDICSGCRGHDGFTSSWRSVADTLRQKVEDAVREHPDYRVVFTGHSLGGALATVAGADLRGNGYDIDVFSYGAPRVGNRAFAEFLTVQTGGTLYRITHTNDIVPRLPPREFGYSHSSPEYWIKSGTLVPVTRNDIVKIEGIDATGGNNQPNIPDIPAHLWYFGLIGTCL

C=Cc1c(C)c2cc3nc(c4c5[nH]c(cc6nc(cc1[nH]2)C(C)=C6CC)c(C)c5C(=O)C4)[C@@H](CCC(=O)O[C@H](COC(=O)CCCCCCCCCCCCCCC)COP(=O)([O-])OCC[N+](C)(C)C)[C@@H]3C [sn-2 pyro-lipid]
cleavage of pyro-lipid regioisomer by LTL [1]: selectively cleaved | cleavage of pyro-lipid regioisomer by lipase from Rhizomucor miehei [2]: preferentially cleaved | cleavage of pyro-lipid regioisomer by lipase from Pseudomonas cepacia [3]: preferentially cleaved
